Measurements: the supplement of paper PMC10307832

Tests used:
Assay in all cases: relative viability (nuclei count vs DMSO), 5 days (fraction); higher = more cells survive
[1] = compound: COC1=CC=C(C=C1)CN2C=CC3=C2C=C(C=C3)C(=O)NO + CCNC(=O)c1noc(-c2cc(C(C)C)c(O)cc2O)c1-c1ccc(CN2CCOCC2)cc1 [Luminespib] (partner 0.01 µM)
In short: (§1)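 Cells from lung cancer lines were seeded into 1536-well plates and, one day later, dosed by pin tool. Treatments were either a single drug or a fixed dose of an anchor drug with five library-drug doses (not always all listed) in √10 steps. After 5 days, nuclei were stained in a one-step fixation (final 0.05% Triton X-100, 1% formaldehyde, 1 ug/ml Hoechst) and counted on 4× images, and relative viability is the treated-to-vehicle nuclei ratio, as the median of duplicate plates.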

[2] = compound: COC1=CC=C(C=C1)CN2C=CC3=C2C=C(C=C3)C(=O)NO + C[C@@H](Oc1cc(-c2cnn(C3CCNCC3)c2)cnc1N)c1c(Cl)ccc(F)c1Cl [Crizotinib] (partner 1 µM)
In short: as §1

[3] = compound: COC1=CC=C(C=C1)CN2C=CC3=C2C=C(C=C3)C(=O)NO + Nc1nc2[nH]cc(CCc3ccc(C(=O)N[C@@H](CCC(=O)O)C(=O)O)cc3)c2c(=O)[nH]1 [Pemetrexed] (partner 0.2 µM)
In short: as §1

Veliparib + OSI-027 = compound: C[C@]1(c2nc3c(C(N)=O)cccc3[nH]2)CCCN1 [Veliparib] + COc1cccc2cc(-c3nc([C@H]4CC[C@H](C(=O)O)CC4)n4ncnc(N)c34)[nH]c12 [OSI-027] (partner 0.5 µM)
In short: as §1

Cell Line	relative viability ([1]; first compound 0.08 µM)	relative viability ([1]; first compound 0.253 µM)	relative viability ([1]; first compound 0.8 µM)	relative viability ([1]; first compound 2.53 µM)	relative viability ([1]; first compound 8 µM)	relative viability ([2]; first compound 0.08 µM)	relative viability ([2]; first compound 0.253 µM)	relative viability ([2]; first compound 0.8 µM)	relative viability ([2]; first compound 2.53 µM)	relative viability ([2]; first compound 8 µM)	relative viability ([3]; first compound 0.08 µM)	relative viability ([3]; first compound 0.253 µM)	relative viability ([3]; first compound 0.8 µM)	relative viability ([3]; first compound 2.53 µM)	relative viability ([3]; first compound 8 µM)	relative viability (Veliparib + OSI-027; first compound 0.02 µM)	relative viability (Veliparib + OSI-027; first compound 0.06325 µM)	relative viability (Veliparib + OSI-027; first compound 0.2 µM)	relative viability (Veliparib + OSI-027; first compound 0.6325 µM)	relative viability (Veliparib + OSI-027; first compound 2 µM)
HCC-827	0.537	0.58	0.461	0.51	0.652	0.87	0.968	0.898	0.961	0.878	0.228	0.27	0.262	0.266	0.253	0.763	0.843	0.722	0.552	0.786
HOP-62	0.756	0.876	0.939	0.951	0.94	0.826	0.833	1.01	1.01	0.959	0.278	0.454	0.31	0.244	0.35	0.756	0.734	0.798	0.792	0.761
IA-LM	–	–	–	–	–	0.618	0.806	0.834	1.02	0.694	–	–	–	–	–	–	–	–	–	–
LC-2-ad	0.993	0.82	0.992	1.06	0.791	0.33	0.531	0.467	0.408	0.397	0.283	0.292	0.307	0.303	0.261	–	0.758	0.781	0.792	0.87
LCLC-97TM1	0.412	0.797	0.801	0.803	0.724	–	0.285	0.395	0.259	0.237	–	0.192	0.182	0.191	0.144	0.51	0.5	0.505	0.433	0.587
LCLC-103H	0.938	0.99	0.948	1.03	0.883	1.1	0.94	1.15	0.984	1.02	0.475	0.452	0.482	0.414	0.425	0.464	0.434	0.462	0.466	0.5
LK-2	–	0.21	0.168	0.194	0.157	–	0.256	0.258	0.255	0.226	–	0.207	0.354	0.353	0.243	0.164	0.204	0.229	0.263	0.206
LOU-NH91	0.316	0.345	0.322	0.341	0.359	0.693	0.738	0.752	0.763	0.704	–	0.417	0.346	0.372	0.391	0.716	0.669	0.688	0.726	0.74
LU99A	–	0.227	0.288	0.29	0.277	–	0.573	0.541	0.562	0.553	–	0.181	0.169	0.174	0.194	0.297	0.303	0.27	0.266	0.323
LXF-289	–	0.732	0.709	0.714	0.632	0.317	0.827	0.827	0.803	0.793	–	0.937	0.872	0.907	0.881	0.836	0.781	0.799	0.711	0.759
NCI-H23	–	–	0.226	0.221	0.204	0.481	0.708	0.445	0.343	0.401	0.514	0.625	0.714	0.709	0.668	0.652	0.393	0.587	0.518	0.737
NCI-H322M	–	0.867	0.909	0.841	0.664	–	0.816	0.98	0.851	0.793	–	–	0.561	0.635	0.609	–	0.48	0.526	0.557	0.482
NCI-H358	0.25	0.428	0.374	0.434	0.213	–	0.645	0.546	0.597	0.395	–	0.161	0.161	0.167	0.164	0.496	0.715	0.796	0.611	0.698
NCI-H522	1.01	1.13	1.18	1.06	1.22	–	–	–	–	–	–	1.01	1.06	0.84	1	0.679	0.731	0.888	0.689	0.732
NCI-H727	0.345	0.406	0.311	0.436	0.323	0.578	0.945	0.98	0.71	0.592	–	–	–	–	–	0.527	0.439	0.648	0.494	0.537
NCI-H1299	–	–	–	–	–	0.947	0.978	0.967	0.943	0.959	–	–	–	–	–	–	–	–	–	–
NCI-H1395	0.662	0.659	0.628	0.708	0.604	–	–	–	–	–	–	0.788	0.913	0.91	0.726	0.494	0.576	0.548	0.579	0.523
NCI-H1648	–	–	–	–	–	–	–	–	–	–	0.794	0.853	0.829	0.717	0.641	0.255	0.262	0.249	0.278	0.251
NCI-H1703	–	–	–	–	–	0.158	0.552	0.619	0.637	0.72	–	–	–	–	–	–	–	–	–	–
NCI-H1793	–	0.184	0.17	0.18	0.219	–	–	–	–	–	–	0.943	0.997	1.08	0.698	0.317	0.265	0.31	0.286	0.262
NCI-H2342	0.697	0.629	0.762	0.786	0.738	–	–	–	–	–	0.726	0.788	0.791	0.753	0.829	0.586	0.558	0.649	0.687	0.572
SW 900	0.174	0.234	0.206	0.217	0.165	–	–	–	–	–	0.446	0.47	0.478	0.486	0.474	–	–	0.675	0.582	0.413
